{
  "source": "patent US20220062296A1",
  "about": "“COMBINATIONS OF GABAA ALPHA 5 AGONISTS AND SV2A INHIBITORS AND METHODS OF USING IN THE TREATMENT OF COGNITIVE IMPAIRMENT” (AGENEBIO, INC., priority 2020, published 2022)",
  "key": {"aMCI subjects": {"system": "aMCI subjects", "experiment": "Explicit 3-alternative forced choice task (lure identification)", "format": "in vivo, human", "from_the_text": "There are various tests known in the art for assessing cognitive function in humans, for example and without limitation, the clinical global impression of change scale (CIBIC-plus scale); the Mini Mental State Exam (MMSE); the Neuropsychiatric Inventory (NPI); the Clinical Dementia Rating Scale (CDR); the Cambridge Neuropsychological Test Automated Battery (CANTAB); the Sandoz Clinical Assessment-Geriatric (SCAG), the Buschke Selective Reminding Test (Buschke and Fuld, 1974); the Verbal Paired Associates subtest; the Logical Memory subtest; the Visual Reproduction sub test of the Wechsler Memory Scale-Revised (WMS-R) (Wechsler, 1997); the Benton Visual Retention Test, or MATRICS consensus neuropsychological test battery which includes tests of working memory, speed of processing, attention, verbal learning, visual learning, reasoning and problem solving and social cognition. See Folstein et al., J Psychiatric Res 12: 189-98, (1975); Robbins et al., Dementia 5: 266-81, (1994); Rey, L'examen clinique en psychologie, (1964); Kluger et al., J Geriatr Psychiatry Neurol 12:168-79, (1999); Marquis et al., 2002 and Masur et al., 1994. Also see Buchanan, R. W., Keefe, R. S. E., Umbricht, D., Green, M. F., Laughren, T., and Marder, S. R. (2011), The FDA-NIMH-MATRICS guidelines for clinical trial design of cognitive-enhancing drugs: what do we know 5 years later? Schizophr. Bull. 37, 1209-1217. Another example of a cognitive test in humans is the explicit 3-alternative forced choice task. […]\n(§1) The activity of the subject's medial temporal lobe is measured by functional MRI during the subject's participation in an explicit 3-alternative forced choice task, where participants view novel, repeated and similar (“lure”) stimuli. […]\nas §1"}, "[1]": {"experiment": "Levetiracetam blood plasma levels in aMCI patients", "format": "in vivo", "settings": "human, oral, based on aMCI patients, read-out: effective plasma level range (preferred range goal)", "from_the_text": "Visit 1: At the end of the first drug/placebo period 2 weeks after the Baseline Visit, the medical, neurological and psychiatric evaluations and cognitive testing are repeated. The subject is also clinically evaluated for suicidal ideation. Blood is drawn again to repeat the standard tests and to determine whether there are any changes related to drug treatment; the subject's blood levetiracetam level is also obtained. All medication dispensed at the Baseline Visit (drug or placebo) is collected and subject compliance with the medication regimen is assessed. The first fMRI session (with cognitive tests) is conducted on the same day, either immediately before or immediately after the clinical assessment. Subjects discontinue first period treatment at this visit.\nVisit 2: At approximately 2 weeks after the Washout Visit (i.e., 2 weeks after starting the second treatment period), the medical, neurological and psychiatric evaluations and the cognitive testing are repeated. The subject is clinically evaluated for suicidal ideation. […] All medication dispensed at the Washout Visit is collected and subject compliance with the medication regimen is assessed. […]\nHuman: in the human studies described in Examples 2 and 3, a subject's levetiracetam blood plasma level was assessed at each visit. […]"}},
  "data": [
    {"smiles": "CC[C@@H](C(N)=O)N1CCCC1=O", "note": "[levetiracetam, (2S)-2-(2-oxopyrrolidin-1-yl)butanamide]", "values": [
      {"measurement": "performance in the explicit 3-alternative forced choice task", "setting": "aMCI subjects; levetiracetam 62.5 mg BID, p=0.041", "result": "improves significantly"},
      {"measurement": "performance in the explicit 3-alternative forced choice task", "setting": "aMCI subjects; levetiracetam 125 mg twice a day for two weeks, p=0.039", "result": "improves significantly"},
      {"measurement": "performance in the explicit 3-alternative forced choice task", "setting": "aMCI subjects; levetiracetam 250 mg BID, p=0.2396", "result": "does not significantly improve"},
      {"measurement": "concentration at 2 weeks", "setting": "[1]", "result": "2900 to 4400", "unit": "ng/mL"}
    ]}
  ]
}
